Measurements from US20080020995A1, “Use of Cyclodextrin Complexes Containing Lipoic Acid” (priority 2004, published 2008).

Test: Storage stability test of blend formulation (α-lipoic acid content)
Assay type: physicochemical
Conditions: absence of air and light
Protocol: First, a blend formulation of the following composition was produced: […]
50 g of creatine monohydrate; 20 g of citric acid; 5.0 g of sodium carbonate; 15 g of sodium bicarbonate; 5.0 g of lemon aroma; 0.5 g of aspartame; 0.5 g of acesulfame K; 4.0 g of magnesium hydroxide
To this blend were added 0.2% by weight of α-lipoic acid and 1.67% by weight of a racemic α-lipoic acid/α-cyclodextrin complex, respectively. The preparations obtained in each case were packaged in the absence of air and light and stored at 20° C. and 40° C.

O=C(O)CCCCC1CCSS1 (racemic) [ALA, 1,2-dithiacyclopentane-3-valeric acid]
α-Lipoic acid content of the blend (20° C., 1 month): 0.19 % by weight | α-Lipoic acid content of the blend (20° C., 2 months): 0.17 % by weight | α-Lipoic acid content of the blend (20° C., 3 months): 0.16 % by weight | α-Lipoic acid content of the blend (20° C., 6 months): 0.14 % by weight | α-Lipoic acid content of the blend (20° C., 9 months): 0.12 % by weight | α-Lipoic acid content of the blend (20° C., 12 months): 0.1 % by weight | α-Lipoic acid content of the blend (40° C., 1 month): 0.16 % by weight | α-Lipoic acid content of the blend (40° C., 2 months): 0.11 % by weight | α-Lipoic acid content of the blend (40° C., 3 months): 0.09 % by weight | α-Lipoic acid content of the blend (40° C., 6 months): 0.06 % by weight | α-Lipoic acid content of the blend (40° C., 9 months): 0.03 % by weight | α-Lipoic acid content of the blend (40° C., 12 months): 0 % by weight
